In article PMC5483892 (Journal of Medicinal Chemistry, 2017):

Target: ATX (full length human β form with a C-terminal 6-His tag) (Homo sapiens, UniProt Q13822)
Format: biochemical
Conditions: for LE (ligand efficiency): LE = −RTpKi/nb heavy atoms; for LE (ligand efficiency) / LLE (lipophilic ligand efficiency): from concentration response pIC50; for LLE (lipophilic ligand efficiency): LLE = pIC50 – cLogP; for affinities within fold of each other: BAL hits 16, 19 and 22 compared with each other

SMILES | LE (ligand efficiency) | LLE (lipophilic ligand efficiency) | affinities within fold of each other [fold] | more potent than 18 (relative to 18) [fold] | increase in potency (relative to phenyl boronic acid 14) [fold]
OB(O)c1ccc2nonc2c1 [Compound 3] | 0.57 | 3.8 |  |  | 
N#Cc1cccc(B(O)O)c1 [Compound 26] | 0.58 |  |  |  | 
COCCc1ccc(OCc2cccc(B(O)O)c2)cc1 [Compound 19] | 0.41 | 3.3 | ≤ 3 | 25 | 
Nc1cccc(-c2nnc[nH]2)c1 [Compound 8] | 0.41 | 3.4 |  |  | 
OCc1cccc(B(O)O)c1 [Compound 18] |  | 3.6 |  |  | 
OB(O)c1ccccc1 [Compound 14, phenyl boronic acid] | 0.76 | 3.7 |  |  | 
OB(O)c1ccc2cc[nH]c2c1 [Compound 1] | 0.65 | 4.4 |  |  | 
COc1cc(COc2ccc(B(O)O)cc2Cl)cc(OC)c1 [Compound 22] | 0.40 | 3.4 | ≤ 3 |  | 
OB(O)c1ccccc1OCc1cccc(Cl)c1 [Compound 16] | 0.45 | 3.5 | ≤ 3 |  | 10

Results, then the compound that gave them:

LE (ligand efficiency) | LLE (lipophilic ligand efficiency) | affinities within fold of each other [fold] | more potent than 18 (relative to 18) [fold] | increase in potency (relative to phenyl boronic acid 14) [fold] | SMILES
0.40 | 2.9 |  |  |  | CS(=O)(=O)c1ccc(O)cc1 [Compound 12]
0.55 | 4.9 |  |  |  | CS(=O)(=O)c1ccc(B(O)O)cc1 [Compound 11]
0.50 | 3.5 |  |  |  | Oc1ccc2nonc2c1 [Compound 4]
0.67 | 3.8 |  |  |  | COc1ccccc1B(O)O [Compound 15]
0.66 | 3.6 |  |  |  | COc1ccc(B(O)O)cc1 [Compound 13]
0.58 | 2.9 |  |  |  | COc1cccc(B(O)O)c1 [Compound 17]
0.44 | 2.8 |  |  |  | NCc1cccc(O)c1 [Compound 6]
0.68 | 3.7 |  |  |  | OB(O)c1ccc(O)cc1 [Compound 9]
0.37 | 2.5 |  |  |  | Oc1ccc(-n2ccnc2)cc1 [Compound 10]
0.35 | 2.8 |  |  |  | O=C(O)c1ccc2cc[nH]c2c1 [Compound 2]
0.66 |  |  |  |  | N#Cc1ccc(B(O)O)cc1 [Compound 21]
0.68 | 3.7 |  |  |  | OB(O)c1cccc(O)c1 [Compound 5]
